Results: paper PMC5592152 (Bioorganic & medicinal chemistry letters, 2017)

Key:
Assay in all cases: electrophysiological experiments, voltage clamp of oocytes
Assay type in all cases: cell-based
α3β4 nAChR = α3β4 nAChR (Homo sapiens, UniProt P30926+P32297)
α4β2 nAChR = α4β2 nAChR (Homo sapiens, UniProt P17787+P43681)
α7 nAChR = α7 nAChR (Homo sapiens, UniProt P36544)
Sequence of α7 nAChR (P36544 23-502): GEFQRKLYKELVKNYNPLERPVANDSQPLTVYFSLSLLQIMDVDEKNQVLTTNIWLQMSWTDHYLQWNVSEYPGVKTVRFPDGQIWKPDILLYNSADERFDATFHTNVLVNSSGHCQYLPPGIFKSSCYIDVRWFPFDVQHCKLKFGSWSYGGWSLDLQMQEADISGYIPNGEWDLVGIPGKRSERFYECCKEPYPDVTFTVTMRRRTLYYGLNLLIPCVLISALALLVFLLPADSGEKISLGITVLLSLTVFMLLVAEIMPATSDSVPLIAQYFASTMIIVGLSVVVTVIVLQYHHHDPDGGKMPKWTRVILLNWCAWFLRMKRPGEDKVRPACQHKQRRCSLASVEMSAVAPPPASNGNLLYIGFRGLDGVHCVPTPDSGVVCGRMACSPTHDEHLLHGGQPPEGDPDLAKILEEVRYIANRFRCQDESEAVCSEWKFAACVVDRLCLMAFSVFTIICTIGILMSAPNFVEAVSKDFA

Sequence of α3β4 nAChR (P32297 32-505): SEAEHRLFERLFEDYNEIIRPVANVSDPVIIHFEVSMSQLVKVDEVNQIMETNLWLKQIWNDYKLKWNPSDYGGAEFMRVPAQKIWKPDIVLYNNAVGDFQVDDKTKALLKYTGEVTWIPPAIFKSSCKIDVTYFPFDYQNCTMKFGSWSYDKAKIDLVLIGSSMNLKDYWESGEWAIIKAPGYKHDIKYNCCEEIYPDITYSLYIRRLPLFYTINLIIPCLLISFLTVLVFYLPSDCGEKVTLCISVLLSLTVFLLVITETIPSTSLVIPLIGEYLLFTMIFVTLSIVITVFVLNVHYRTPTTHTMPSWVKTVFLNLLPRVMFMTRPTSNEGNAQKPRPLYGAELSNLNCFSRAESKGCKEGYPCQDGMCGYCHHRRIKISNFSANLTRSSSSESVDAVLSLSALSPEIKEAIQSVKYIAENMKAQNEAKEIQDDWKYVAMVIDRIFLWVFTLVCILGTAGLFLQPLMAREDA
Sequence of α3β4 nAChR (P30926 22-498): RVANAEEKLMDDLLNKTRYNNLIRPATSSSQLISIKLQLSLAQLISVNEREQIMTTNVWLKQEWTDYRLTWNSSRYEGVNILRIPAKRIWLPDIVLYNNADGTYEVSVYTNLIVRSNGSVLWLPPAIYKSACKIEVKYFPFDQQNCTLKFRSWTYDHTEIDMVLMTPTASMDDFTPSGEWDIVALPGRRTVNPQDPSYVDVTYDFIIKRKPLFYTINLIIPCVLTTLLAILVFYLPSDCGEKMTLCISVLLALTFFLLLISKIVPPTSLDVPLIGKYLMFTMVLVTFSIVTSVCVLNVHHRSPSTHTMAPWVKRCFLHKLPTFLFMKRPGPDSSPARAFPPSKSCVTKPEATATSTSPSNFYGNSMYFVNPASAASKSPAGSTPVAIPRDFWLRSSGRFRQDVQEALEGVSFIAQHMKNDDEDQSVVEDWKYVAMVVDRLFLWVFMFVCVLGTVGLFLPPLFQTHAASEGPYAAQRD
Sequence of α4β2 nAChR (P43681 29-627 limits assumed): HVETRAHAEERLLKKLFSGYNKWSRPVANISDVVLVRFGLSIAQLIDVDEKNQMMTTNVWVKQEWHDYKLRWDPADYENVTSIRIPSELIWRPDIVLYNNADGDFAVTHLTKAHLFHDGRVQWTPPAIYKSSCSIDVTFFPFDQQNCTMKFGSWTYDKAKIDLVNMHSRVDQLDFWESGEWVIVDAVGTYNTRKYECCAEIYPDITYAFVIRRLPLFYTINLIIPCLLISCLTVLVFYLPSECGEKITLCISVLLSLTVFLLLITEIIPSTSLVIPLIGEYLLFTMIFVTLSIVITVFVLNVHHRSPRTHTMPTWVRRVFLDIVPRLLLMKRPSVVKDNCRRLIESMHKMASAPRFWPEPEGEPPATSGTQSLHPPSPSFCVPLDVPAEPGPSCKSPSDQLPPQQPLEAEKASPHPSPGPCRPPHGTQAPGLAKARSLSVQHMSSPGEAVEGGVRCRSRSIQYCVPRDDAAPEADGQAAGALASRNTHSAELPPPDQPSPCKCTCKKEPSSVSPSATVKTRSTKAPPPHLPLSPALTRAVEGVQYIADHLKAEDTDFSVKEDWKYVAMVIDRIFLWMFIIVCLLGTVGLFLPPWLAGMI
Sequence of α4β2 nAChR (P17787 26-502): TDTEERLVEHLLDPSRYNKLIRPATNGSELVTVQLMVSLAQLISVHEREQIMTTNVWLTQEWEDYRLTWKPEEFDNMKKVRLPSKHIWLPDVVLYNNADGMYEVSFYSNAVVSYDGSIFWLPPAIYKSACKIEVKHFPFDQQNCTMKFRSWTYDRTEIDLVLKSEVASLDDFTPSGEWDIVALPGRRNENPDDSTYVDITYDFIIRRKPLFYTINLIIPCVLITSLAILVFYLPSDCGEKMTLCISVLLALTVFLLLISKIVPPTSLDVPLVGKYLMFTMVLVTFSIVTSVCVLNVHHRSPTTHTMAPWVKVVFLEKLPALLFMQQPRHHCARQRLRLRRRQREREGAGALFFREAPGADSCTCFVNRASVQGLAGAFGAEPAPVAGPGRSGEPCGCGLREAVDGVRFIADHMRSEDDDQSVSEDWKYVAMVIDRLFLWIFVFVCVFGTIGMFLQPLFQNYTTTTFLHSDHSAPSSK

agonist activity (α3β4 nAChR; 100 μM for α3β4, normalized to control ACh response): no significant agonist activity
antagonist activity (α3β4 nAChR; compound at 100 μM, with ACh 100 μM): significantly antagonized
agonist activity (α4β2 nAChR; 30 μM for α4β2, normalized to control ACh response): no significant agonist activity
antagonist activity (α4β2 nAChR; compound at 100 μM, with ACh 30 μM): no significant antagonist activity
agonist activity (α7 nAChR; 60 μM for α7, normalized to control ACh response): no significant agonist activity
antagonist activity (α7 nAChR; compound at 100 μM, with ACh 60 μM): no significant antagonist activity
SMILES: CN1CCC=C(c2cnc(F)c(-c3ccccc3)c2)C1 [Compound 3a]
